Patent publication US20230107216A1, “PANTETHEINE DERIVATIVES AND USES THEREOF” (Comet Therapeutics, Inc., priority 2018, published 2023)
Like-named read-outs stand apart in the source and are kept apart here.

What was measured:
[1] = tested on: primary fibroblasts (healthy controls and PA, MMA, BCKDK, PDH, VLCAD, LS, PC, GA, VLCFA, KSS, FXN, HD); assay: Measurement of ROS (H2DCFDA) in primary fibroblasts; type: cell-based, human; details: Homo sapiens, procedure Example 812
How it was run: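 Patient and healthy-control primary fibroblasts switched to supplemented DMEM 24 h before assay, then treated with compound (10 μM) plus H2DCFDA (22 μM) for 2 h (PA, MMA lines) or 24 h (other lines). Kinetic fluorescence at 492/527 nm over 60 min; only live cells analysed.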

HepG2 cells = assay: Mitochondrial membrane potential (MITO-ID MP detection Kit); type: cell-based; details: Homo sapiens, 168 h, 7 days; for activation at 10 µM: read-out: % increase in Mitochondrial Membrane Potential
How it was run: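 Cells plated at 160000 cells/mL in DMEM with 10% FBS and 1% Pen-Strep, adhered overnight at 37° C., 5% CO2. Exposure to test compounds (50-10 μM) or 0.2% DMSO for 7 days without media change; membrane potential measured with MITO-ID MP detection kit per manufacturer.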

[2] = read-out: % decrease in Mitochondrial Membrane Potential
[3] = Fibroblast, PDH GM01503, Assay Condition C, read-out: Decreased ROS by at least 10%
[4] = Fibroblast, PDH GM01503, Assay Condition C, read-out: Decreased ROS by at least 30%
[5] = FXN GM04078, Assay Condition C, read-out: Decreased ROS by at least 10%
[6] = FXN GM04078, Assay Condition C, read-out: Decreased ROS by at least 30%
[7] = Fibroblast, BCKD GM00612, Assay Condition A, read-out: Decreased ROS by at least 10%
[8] = Fibroblast, VLCFA GM13262, Assay Condition C, read-out: Decreased ROS by at least 30%
[9] = Fibroblast, BCKD GM00649, Assay Condition C, read-out: Decreased ROS by at least 10%
[10] = Fibroblast, BCKD GM00649, Assay Condition C, read-out: Decreased ROS by at least 30%

`COC(=O)/C=C/C(=O)SCCNC(=O)CCNC(=O)[C@H](O)C(C)(C)COP(=O)(O)O` [Compound 73, methyl (R,E)-4-((2-(3-(2-hydroxy-3,3-dimethyl-4-(phosphonooxy)butanamido)propanamido)ethyl)thio)-4-oxobut-2-enoate] showed an inhibition at 10 µM ([1]; Fibroblast, NPC1 GM22879, Assay Condition C, read-out: Decreased ROS by at least 10%) of at least 10% and an inhibition at 50 µM (HepG2 cells; [2]) of over 30%.

With `C[C@@H](O)CC(=O)SCCNC(=O)CCNC(=O)[C@H](O)C(C)(C)CO` [Compound 38, S-2-{3-[(R)-2,4-dihydroxy-3,3-dimethylbutyrylamino]propionylamino} ethyl (R)-3-hydroxybutanethioate] the inhibition at 10 µM [1, 3] was at least 10%, the inhibition at 10 µM [1, 4] was at least 30% and the inhibition at 10 µM [1, 5] was at least 10%. It also gave an inhibition at 10 µM [1, 6] of at least 30% and an inhibition at 50 µM (HepG2 cells; [2]) of over 30%.

`CC(O)C(C(=O)SCCNC(=O)CCNC(=O)[C@H](O)C(C)(C)CO)C(C)O` (stereo partly drawn) [Compound 1285, (2R)-2,4-dihydroxy-N-[2-[(2-[[3-hydroxy-2-(1-hydroxyethyl)butanoyl]sulfanyl]ethyl)carbamoyl]ethyl]-3,3-dimethylbutanamide] showed an inhibition at 10 µM [1, 7] of at least 10%, an inhibition at 10 µM ([1]; Fibroblast, NPC1 GM22879, Assay Condition C, read-out: Decreased ROS by at least 30%) of at least 30% and an inhibition at 50 µM (HepG2 cells; [2]) of over 30%.

`CC(C)(CO)[C@@H](OC(=O)CCC(=O)O)C(=O)NCCC(=O)NCCS` [Compound 1311, (R)-4-((4-hydroxy-1-((3-((2-mercaptoethyl)amino)-3-oxopropyl)amino)-3,3-dimethyl-1-oxobutan-2-yl)oxy)-4-oxobutanoic acid] showed an inhibition at 10 µM [1, 7] of at least 10%, an inhibition at 10 µM [1, 8] of at least 30% and an inhibition at 10 µM [1, 5] of at least 10%. The inhibition at 10 µM [1, 6] was at least 30% and the activation at 10 µM (HepG2 cells; 10 uM) was over 10%.

`CC1(CC(=O)SCCNC(=O)CCNC(=O)[C@H](O)C(C)(C)CO)OCCO1` [Compound 1252, (R)—S-(2-(3-(2,4-dihydroxy-3,3-dimethylbutanamido)propanamido)ethyl)-2-(2-methyl-1,3-dioxolan-2-yl)ethanethioate] was tested, and the inhibition at 10 µM [1, 3] was at least 10%, the inhibition at 10 µM [1, 4] was at least 30% and the activation at 10 µM (HepG2 cells; 10 uM) was over 20%.

With `CC(C)(CO)[C@@H](O)C(=O)NCCC(=O)NCCSC(=O)CC(O)C(=O)O` (stereo partly shown) [Compound 39] the inhibition at 10 µM ([1]; Fibroblast, VLCAD GM17475, Assay Condition C, read-out: Decreased ROS by at least 10%) was at least 10% and the inhibition at 50 µM (HepG2 cells; [2]) was over 50%.

`COC(=O)C(C)C(=O)SCCNC(=O)CCNC(=O)[C@H](O)C(C)(C)CO` (stereo partly shown) [Compound 405] was tested, and the inhibition at 10 µM [1, 9] was at least 10%, the inhibition at 10 µM [1, 10] was at least 30% and the inhibition at 50 µM (HepG2 cells; [2]) was over 50%.

`CCC(C)C(=O)CC(=O)SCCNC(=O)CCNC(=O)[C@H](O)C(C)(C)CO` (stereo partly drawn) [Compound 1240, S-(2-(3-((R)-2,4-dihydroxy-3,3-dimethylbutanamido)propanamido)ethyl) 4-methyl-3-oxohexanethioate] gave an inhibition at 10 µM [1, 7] of at least 10%, an inhibition at 10 µM [1, 8] of at least 30% and an inhibition at 10 µM [1, 5] of at least 10%. For the same molecule, the inhibition at 10 µM [1, 6] was at least 30% and the inhibition at 50 µM (HepG2 cells; [2]) was over 50%.

Molecule `COC(=O)CCC(=O)SCCNC(=O)CCNC(=O)[C@H](O)C(C)(C)CO` [Compound 4, Methyl (R)-4-((2-(3-(2,4-dihydroxy-3,3-dimethylbutanamido)propanamido)ethyl)thio)-4-oxobutanoate] has an inhibition at 10 µM [1, 9] of at least 10%, an inhibition at 10 µM [1, 10] of at least 30% and an inhibition at 10 µM (HepG2 cells; 10 uM, read-out: % decrease in Mitochondrial Membrane Potential) of over 30%.
